In brackets after ≈: the same amount, converted by molar mass. Several values for one entry are separate records, joined by “and”; a condition that tells them apart may be missing. Equal entries are not always repeated. Where two headings read alike, the source gives them in different places.
Legend:
[1] = biological target: MtbCoaBC (Mycobacterium tuberculosis, UniProt P9WNZ1); assay: biochemical; format: biochemical; details: for Activity % R1 / Activity % R3 / Activity %: relative to average CT; for Activity R1 / Activity R3: slope of absorbance at 360 nm vs time (s); for activity at 0.0625 µM / activity at 0.25 µM / activity at 0.5 µM / activity at 1 µM / activity at 2 µM: relative to average DMSO CT; for IC50: read-out: IC50 EnzChek MtbCoaBC; for Activity % / Inhibition %: MtbCoaBC, replicates R1-R3; for reaction rate (slope of absorbance at 360 nm versus time), replicates: IC50 MtbCoaBC MlCoA; for reaction rate (slope of absorbance at 360 nm versus time), replicates / % inhibition, replicates / % remaining activity relative to uninhibited control, replicates: three replicates
Sequence of MtbCoaBC (P9WNZ1 whole entry): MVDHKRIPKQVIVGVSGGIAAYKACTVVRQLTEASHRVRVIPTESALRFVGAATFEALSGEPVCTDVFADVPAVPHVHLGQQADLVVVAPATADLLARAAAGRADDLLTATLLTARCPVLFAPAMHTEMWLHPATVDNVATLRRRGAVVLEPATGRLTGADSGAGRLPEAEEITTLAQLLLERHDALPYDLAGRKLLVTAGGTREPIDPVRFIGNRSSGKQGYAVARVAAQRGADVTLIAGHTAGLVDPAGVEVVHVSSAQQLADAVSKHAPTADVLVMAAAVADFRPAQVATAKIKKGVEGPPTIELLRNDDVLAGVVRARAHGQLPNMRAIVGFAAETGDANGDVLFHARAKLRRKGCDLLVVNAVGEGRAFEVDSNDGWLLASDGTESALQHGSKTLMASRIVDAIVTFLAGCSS

[2] = system: M. tuberculosis H37Rv; assay: MIC determination in different media; format: cell-based; details: Mycobacterium tuberculosis
[3] = MlCoA concentration 512 (log 2.70927; unit not given)
[4] = MlCoA concentration 1024 (log 3.0103; unit not given)

## succinyl-CoA [SucCoA]
[1]; 8 uM SucCoA, replicate R1
  Activity % R1: 96.11%
  Inhibition % R1: 3.89%
  Activity R1: 0.0001648
[1]; 8 uM SucCoA, replicate R3
  Activity % R3: 95.1%
  Inhibition % R3: 4.90%
  Activity R3: 0.0001631
[1]; 16 uM SucCoA, replicate R1
  Activity % R1: 73.57%
  Inhibition % R1: 26.43%
  Activity R1: 0.0001261
[1]; 16 uM SucCoA, replicate R3
  Activity % R3: 71.48%
  Inhibition % R3: 28.52%
  Activity R3: 0.0001226
[1]; 32 uM SucCoA, replicate R1
  Activity % R1: 58.32%
  Inhibition % R1: 41.68%
  Activity R1: 0.000099995
[1]; 32 uM SucCoA, replicate R3
  Activity % R3: 59.99%
  Inhibition % R3: 40.01%
  Activity R3: 0.0001029
[1]; 64 uM SucCoA, replicate R1
  Activity % R1: 30.98%
  Inhibition % R1: 69.02%
  Activity R1: 0.000053122
[1]; 64 uM SucCoA, replicate R3
  Activity % R3: 29.66%
  Inhibition % R3: 70.34%
  Activity R3: 0.000050860
[1]; 128 uM SucCoA, replicate R1
  Activity % R1: 16.56%
  Inhibition % R1: 83.44%
  Activity R1: 0.000028403
[1]; 128 uM SucCoA, replicate R3
  Activity % R3: 18.74%
  Inhibition % R3: 81.26%
  Activity R3: 0.000032131
[1]; 256 uM SucCoA, replicate R1
  Activity % R1: 6.801%
  Inhibition % R1: 93.20%
  Activity R1: 0.000011661
[1]; 256 uM SucCoA, replicate R3
  Activity % R3: 8.41%
  Inhibition % R3: 91.59%
  Activity R3: 0.000014421

## O=c1cc(-c2ccc(O)cc2)oc2cc(O)c(O)c(O)c12 [2c]
[1]; 0.03125 uM 2c, replicate R1
  Activity R1: 0.0001739
[1]; 0.03125 uM 2c, replicate R3
  Activity R3: 0.000177
[1]; 0.0625 uM 2c, replicate R1, read-out: Inhibition % R1
  inhibition at 0.0625 µM: 8.57%
[1]; 0.0625 uM 2c, replicate R1, read-out: Activity % R1
  activity at 0.0625 µM: 91.4%
[1]; 0.0625 uM 2c, replicate R1
  Activity R1: 0.0001646
[1]; 0.0625 uM 2c, replicate R2, read-out: Inhibition % R2
  inhibition at 0.0625 µM: 5.71%
[1]; 0.0625 uM 2c, replicate R2, read-out: Activity % R2
  activity at 0.0625 µM: 94.3%
[1]; 0.0625 uM 2c, replicate R3, read-out: Inhibition % R3
  inhibition at 0.0625 µM: 10.2%
[1]; 0.0625 uM 2c, replicate R3, read-out: Activity % R3
  activity at 0.0625 µM: 89.8%
[1]; 0.0625 uM 2c, replicate R3
  Activity R3: 0.0001617
[1]; 0.25 uM 2c, replicate R1, read-out: Inhibition % R1
  inhibition at 0.25 µM: 34%
[1]; 0.25 uM 2c, replicate R1, read-out: Activity % R1
  activity at 0.25 µM: 66%
[1]; 0.25 uM 2c, replicate R1
  Activity R1: 0.0001189
[1]; 0.25 uM 2c, replicate R2, read-out: Inhibition % R2
  inhibition at 0.25 µM: 32.6%
[1]; 0.25 uM 2c, replicate R2, read-out: Activity % R2
  activity at 0.25 µM: 67.4%
[1]; 0.25 uM 2c, replicate R3, read-out: Inhibition % R3
  inhibition at 0.25 µM: 28.9%
[1]; 0.25 uM 2c, replicate R3, read-out: Activity % R3
  activity at 0.25 µM: 71.1%
[1]; 0.25 uM 2c, replicate R3
  Activity R3: 0.0001279
[1]; 0.5 uM 2c, replicate R1, read-out: Inhibition % R1
  inhibition at 0.5 µM: 56.9%
[1]; 0.5 uM 2c, replicate R1, read-out: Activity % R1
  activity at 0.5 µM: 43.1%
[1]; 0.5 uM 2c, replicate R1
  Activity R1: 0.000077692
[1]; 0.5 uM 2c, replicate R2, read-out: Inhibition % R2
  inhibition at 0.5 µM: 60.3%
[1]; 0.5 uM 2c, replicate R2, read-out: Activity % R2
  activity at 0.5 µM: 39.7%
[1]; 0.5 uM 2c, replicate R3, read-out: Inhibition % R3
  inhibition at 0.5 µM: 53.5%
[1]; 0.5 uM 2c, replicate R3, read-out: Activity % R3
  activity at 0.5 µM: 46.5%
[1]; 0.5 uM 2c, replicate R3
  Activity R3: 0.000083810
[1]; 1 uM 2c, replicate R1, read-out: Inhibition % R1
  inhibition at 1 µM: 77.6%
[1]; 1 uM 2c, replicate R1, read-out: Activity % R1
  activity at 1 µM: 22.4%
[1]; 1 uM 2c, replicate R1
  Activity R1: 0.000040344
[1]; 1 uM 2c, replicate R2, read-out: Inhibition % R2
  inhibition at 1 µM: 82.6%
[1]; 1 uM 2c, replicate R2, read-out: Activity % R2
  activity at 1 µM: 17.4%
[1]; 1 uM 2c, replicate R3, read-out: Inhibition % R3
  inhibition at 1 µM: 72.1%
[1]; 1 uM 2c, replicate R3, read-out: Activity % R3
  activity at 1 µM: 27.9%
[1]; 1 uM 2c, replicate R3
  Activity R3: 0.000050204
[1]; 2 uM 2c, replicate R1, read-out: Inhibition % R1
  inhibition at 2 µM: 91.9%
[1]; 2 uM 2c, replicate R1, read-out: Activity % R1
  activity at 2 µM: 8.07%
[1]; 2 uM 2c, replicate R1
  Activity R1: 0.000014525
[1]; 2 uM 2c, replicate R2, read-out: Inhibition % R2
  inhibition at 2 µM: 95%
[1]; 2 uM 2c, replicate R2, read-out: Activity % R2
  activity at 2 µM: 5.02%
[1]; 2 uM 2c, replicate R3, read-out: Inhibition % R3
  inhibition at 2 µM: 84.9%
[1]; 2 uM 2c, replicate R3, read-out: Activity % R3
  activity at 2 µM: 15.1%
[1]; 2 uM 2c, replicate R3
  Activity R3: 0.000027204
[1]; read-out: Activity % R1
  activity at 0.03125 µM: 96.6%
[1]; read-out: Activity % R2
  activity at 0.03125 µM: 96.7%
[1]; read-out: Activity % R3
  activity at 0.03125 µM: 98.3%
[1]
  IC50: 0.41 ± 0.03 µM
[1]; read-out: Inhibition % R1
  inhibition at 0.03125 µM: 3.4%
[1]; read-out: Inhibition % R2
  inhibition at 0.03125 µM: 3.27%
[1]; read-out: Inhibition % R3
  inhibition at 0.03125 µM: 1.68%
[2]; read-out: Minimum inhibitory concentration (MIC), 7H9/ADC/Glycerol
  MIC: > 250 µM
[2]; read-out: Minimum inhibitory concentration (MIC), 7H9/Cholesterol/Tyloxapol
  MIC: > 250 µM
[2]; read-out: Minimum inhibitory concentration (MIC), GAST/Fe
  MIC: 125 µM (≈ 35.8 µg/mL)

## CC(C)(COP(=O)(O)OP(=O)(O)OC[C@H]1O[C@@H](n2cnc3c(N)ncnc32)[C@H](O)[C@@H]1OP(=O)(O)O)[C@@H](O)C(=O)NCCC(=O)NCCSC(=O)CC(=O)O [MlCoA, malonyl-CoA]
[1]; 8 uM MlCoA
  Activity %: 92.1% and 91.15% and 93.21%
  Inhibition %: 8.85% and 6.79% and 7.90%
[1]; 16 uM MlCoA
  Activity %: 76.14% and 76.7% and 75.8%
  Inhibition %: 23.30% and 24.20% and 23.86%
[1]; 32 uM MlCoA
  Activity %: 63.4% and 64.14% and 61%
  Inhibition %: 35.86% and 39.00% and 36.60%
[1]; 64 uM MlCoA
  Activity %: 43.31% and 44.56% and 41.61%
  Inhibition %: 55.44% and 58.39% and 56.69%
[1]; 128 uM MlCoA
  Activity %: 23.32% and 26.33% and 20.47%
  Inhibition %: 73.67% and 79.53% and 76.68%
[1]; 256 uM MlCoA
  Activity %: 12.52% and 10.98% and 14.64%
  Inhibition %: 89.02% and 85.36% and 87.48%
[1]; CoaB activity, […] CTP, […] PPA, 500 µM L-cysteine, average of three independent experiments ± SD
  IC50: 48 ± 3 µM
[1]; [3]
  reaction rate (slope of absorbance at 360 nm versus time), replicates: 0.000003647 and 0.000000222 and 0.000004502
  % inhibition, replicates: 99.87 and 97.43 and 97.92
  % remaining activity relative to uninhibited control, replicates: 2.081 and 0.1265 and 2.569
[1]; [4]
  reaction rate (slope of absorbance at 360 nm versus time), replicates: 0.000003588 and 0.000000204 and 0.000003109
  % inhibition, replicates: 99.88 and 98.23 and 97.95
  % remaining activity relative to uninhibited control, replicates: 2.047 and 0.1162 and 1.774

Reference: paper PMC7794376 (Nature Communications, 2021)
